From US11873298B2, “Compounds and uses thereof” (JANSSEN PHARMACEUTICA NV, priority 2017, dated 2024)
pIC50: −log10 of the molar value. Several values for one entry are separate records, joined by “and”; a condition that tells them apart may be missing. Equal values may be shown once.

Columns and labels:
Assay type in all cases: cell-based
[1] = molecular target: T1, Ole1 (Saccharomyces cerevisiae, UniProt P21147); experiment: Growth inhibition of yeast strain expressing Ole1 as sole desaturase; details: yeast strain expressing Ole1 as sole desaturase
T1 construct: expressed in transfected cells; host or cells: S. cerevisiae ole1Δ strain (W303 pdr1Δ pdr3Δ background), plasmid pRS316 with TDH3 promoter and CYC1 terminator
T1 sequence (P21147 1-510): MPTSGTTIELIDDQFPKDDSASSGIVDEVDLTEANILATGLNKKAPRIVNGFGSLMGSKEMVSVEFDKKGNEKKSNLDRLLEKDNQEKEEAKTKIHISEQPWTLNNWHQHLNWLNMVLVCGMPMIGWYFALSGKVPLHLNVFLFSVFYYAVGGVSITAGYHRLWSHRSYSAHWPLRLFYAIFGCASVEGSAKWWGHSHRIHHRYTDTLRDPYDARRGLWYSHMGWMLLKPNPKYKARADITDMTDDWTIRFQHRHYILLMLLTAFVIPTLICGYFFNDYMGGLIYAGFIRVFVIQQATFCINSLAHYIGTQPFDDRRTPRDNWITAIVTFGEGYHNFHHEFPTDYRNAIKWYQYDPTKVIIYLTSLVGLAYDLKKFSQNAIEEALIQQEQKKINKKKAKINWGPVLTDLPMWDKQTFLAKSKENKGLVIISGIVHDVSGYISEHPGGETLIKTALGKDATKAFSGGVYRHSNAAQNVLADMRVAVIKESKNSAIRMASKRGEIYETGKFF
Experimental: Strain oleΔ (yeast ole1 deletion mutant) was constructed by deleting OLE1 with NAT-MX6 in BY4741, amplifying the deletion cassette from the genomic DNA of the resulting strain with primers flanking the ORF by 1000 bp upstream and downstream, transforming the resulting deletion cassette into W303 pdr1Δ pdr3Δ, and plating transformants on YPD media containing G418 (200 μg/mL) and nourseothricin ([…]) with 0.01% TWEEN®-20 and 0.5 mM oleic and palmitoleic acids.
The coding sequence of yeast OLE1 was also cloned into this plasmid). These clones were then transformed into the ole1Δ strain and plated on CSM-Ura media (CSM lacking uracil) with 2% glucose (w/v) and independent colonies were isolated and amplified.
All compound profiling experiments were performed using the same basic protocol. Different genetic backgrounds (e.g., gene deletions) or conditions (e.g., addition of oleic and palmitoleic acid) were replaced as indicated below.
Yeast were cultured using standard techniques in complete synthetic media (CSM) and yeast nitrogen base supplemented with 2% (w/v) carbon source (glucose, raffinose, or galactose) to regulate the expression of the toxic disease protein. An initial starter culture was inoculated in 3 mL CSM-Glucose media and incubated overnight in a 30° C. shaker incubator (225 rpm). Saturated morning cultures were then diluted 1:20 in fresh CSM-Raffinose media and grown for 6 h to an OD600 (optical density) of ˜0.4-0.8 at 30° C. with shaking.
Compound administration was performed in two separate steps. First, 15 μL of CSM-Galactose (induces expression of toxic protein) was dispensed into clear 384 well assay plates using a MULTIDROP™ Combi reagent dispenser. […] The cultures described above were then diluted to a 2× concentration (0.03 and 0.08 for alpha-synuclein and ApoE, final ODsoo of 0.015 and 0.04) in CSM-Galactose. For wild-type and Ole1/SCD1/SCD5 plasmid-containing strains, the 2× cell density was 0.02. […] For 96-well assays (FIGS. 1A and 1B), compound dilutions in DMSO were generated in 96 well plates and 1 μL was manually pipetted into 96 well clear bottom assay plates.
For experiments using a plasmid-borne copy of Ole1, SCD1, or SCD5 (FIGS. 3B, 6, and 7), media lacking uracil (SX-Ura, where X is glucose, raffinose, or galactose), was used for all steps of the compound profiling protocol to ensure its maintenance throughout the assay.
After yeast delivery, assay plates were incubated under humidified conditions at 30° C. for 24 to 40 h. ApoE4 rescue experiments were stopped at 24 h, aSyn experiments at 40 h, Ole1 at 24 h, and SCD1/SCD5 at 40 h. The growth of yeast was monitored by reading the ODsoo of each well using a microplate reader (Perkin Elmer EnVision™).

[2] = molecular target: T2, SCD1 (Homo sapiens, UniProt O00767); experiment: Growth inhibition of humanized yeast strain expressing SCD1 as sole desaturase; details: humanized yeast strain expressing SCD1
T2 construct: host or cells: S. cerevisiae ole1Δ strain (W303 pdr1Δ pdr3Δ background), plasmid pRS316 with TDH3 promoter and CYC1 terminator
T2 sequence (O00767 1-359): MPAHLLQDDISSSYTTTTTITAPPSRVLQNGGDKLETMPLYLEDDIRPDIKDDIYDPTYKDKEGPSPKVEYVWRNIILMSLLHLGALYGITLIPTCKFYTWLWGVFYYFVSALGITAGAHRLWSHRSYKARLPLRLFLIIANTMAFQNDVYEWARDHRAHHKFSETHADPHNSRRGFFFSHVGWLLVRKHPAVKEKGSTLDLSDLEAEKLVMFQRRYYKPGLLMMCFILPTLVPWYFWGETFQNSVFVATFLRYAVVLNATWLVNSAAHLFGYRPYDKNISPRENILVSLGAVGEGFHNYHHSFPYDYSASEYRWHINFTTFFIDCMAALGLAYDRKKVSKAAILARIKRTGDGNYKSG
Procedure, shortened: (§1)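 Measured by optical density at 600 nm, growth of desaturase-dependent yeast (OLE1 deleted; human SCD1, human SCD5 or yeast Ole1 supplied from plasmid) was scored after 24 h (Ole1) or 40 h (SCD1, SCD5) at 30° C. in galactose media lacking uracil with DMSO-delivered compound.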

[3] = molecular target: T3, SCD5 (Homo sapiens, UniProt Q86SK9); experiment: Growth inhibition of humanized yeast strain expressing SCD5 as sole desaturase; details: humanized yeast strain expressing SCD5
T3 construct: host or cells: S. cerevisiae ole1Δ strain (W303 pdr1Δ pdr3Δ background), plasmid pRS316 with TDH3 promoter and CYC1 terminator
T3 sequence (Q86SK9 1-330): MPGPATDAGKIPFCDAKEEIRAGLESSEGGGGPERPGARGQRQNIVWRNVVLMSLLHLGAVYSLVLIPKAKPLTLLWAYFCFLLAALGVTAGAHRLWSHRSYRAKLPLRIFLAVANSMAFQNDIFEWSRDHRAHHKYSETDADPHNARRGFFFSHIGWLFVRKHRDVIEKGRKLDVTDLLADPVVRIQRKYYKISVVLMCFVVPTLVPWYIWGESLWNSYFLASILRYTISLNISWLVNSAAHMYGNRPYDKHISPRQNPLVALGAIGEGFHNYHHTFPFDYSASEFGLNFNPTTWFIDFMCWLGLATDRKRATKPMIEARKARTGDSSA
Procedure, shortened: as §1

Row | SMILES | pIC50 [1] | OLE1 % Max Inhibition [1] | pIC50 [2] | SCD1 % Max Inhibition [2] | pIC50 [3] | SCD5 % Max Inhibition [3] [%]
1 | COc1ccc(-c2noc(C3CCN(C(=O)c4cccc(C(C)C)c4)CC3)n2)cc1OC [Compound 167] | 4.42 | 57.28% | < 4.35 | 6.11% | < 4.35 | 2.38
2 | Cc1nn(C)c2cc(-c3noc(C4CCN(C(=O)C5CC(=O)N(c6cccc(C#N)c6)C5)CC4)n3)ccc12 (centres unmarked) [Compound 168] | < 4.35 | 4.90% and 8.34% | < 4.35 | 114.58% and 74.07% | < 4.35 | –
3 | Cc1nn(C)c2cc(-c3noc(C4CCN(C(=O)C5CC(=O)N(c6ccccc6C#N)C5)CC4)n3)ccc12 (centres unmarked) [Compound 170] | 4.39 | 67.97% | < 4.35 | 103.19% | < 4.35 | 85.13
4 | CC(C)n1ncc2ccc(-c3noc(C4CCN(C(=O)CNC(=O)c5ccccc5)CC4)n3)cc21 [Compound 171] | < 4.35 | 6.77% | 4.39 | 74.21% | < 4.35 | −0.14
5 | CCOc1ccc(-c2noc(C3CCN(C(=O)[C@@H]4CN(c5ccccc5)C(=O)O4)CC3)n2)cc1OC [Compound 172] | < 4.35 | 3.99% | < 4.35 | 89.39% | 4.39 | 68.80
6 | Cc1nn(C)c2cc(-c3noc(C4CCN(C(=O)[C@H]5CN(c6ccccc6)C(=O)O5)CC4)n3)ccc12 [Compound 173] | < 4.35 | 99.75% | < 4.35 | 78.07% | 4.53 | 42.09
7 | CC(C)n1ncc2ccc(-c3noc(C4CCN(C(=O)C5CC(=O)N(c6ccccc6)C5)CC4)n3)cc21 (centres unmarked) [Compound 174] | < 4.35 | 89.17% | < 4.35 | 79.07% | < 4.35 | 10.95
8 | CCOc1ccc(-c2noc(C3CCN(C(=O)CN4Cc5c(F)cccc5C4=O)CC3)n2)cc1OC [Compound 175] | < 4.35 | 3.00% | < 4.35 | 77.47% | < 4.35 | 77.96
9 | CCOc1ccc(-c2noc(C3CCN(C(=O)CN4Cc5cc(F)ccc5C4=O)CC3)n2)cc1OC [Compound 176] | < 4.35 | 3.62% | < 4.35 | 107.22% | < 4.35 | 83.50
